Columns and labels:
[1] = Stability study by UV-Vis spectroscopy in PBS (1% DMSO); assay type: physicochemical; conditions: 40 μM 1a/2a, 80 μM 1b/2b
Experimental: Stability Study by UV-Vis Spectroscopy
All four compounds were freshly diluted in PBS (1% DMSO) from a DMSO stock solution at […]
80 µM. The stability of the compounds was monitored in a UV-Vis spectrophotometer (Perkin Elmer lambda 35 photometer) over 96 h by acquiring an UV-Vis spectrum every 30 mins. The percentage of the remaining intact compound was calculated by the ratio of the maximum absorbance of the tridentate complexes’ characteristic absorption band around 350– 370 nm after a given timepoint (A) compared to the one directly after dilution (A0). […]

CT26 colon carcinoma = test: Anti-tumour activity in subcutaneous CT26 allografts; assay type: in vivo, BALB/c mice; conditions: for tumour growth compared to vehicle-treated controls: i.p. over two weeks, 10 mg kg^−1 (1a, 2a), 30 mg kg^−1 (1b, 2b)
Experimental: Tumour inhibition of the four compounds was evaluated in subcutaneous CT26 allografts using BALB/c mice, since it represents an appropriate immune competent mouse model to study colon carcinoma. The compounds were administered intraperitoneally (i.p.) over two weeks at doses of 10 mg kg^−1 for the 3-Et-NQ complexes and 30 mg kg^−1 for the 3-Morph-NQ complexes. The different dosages were selected as maximal tolerable doses (MTDs) after an initial toxicity screen (data not shown).
Animals. All experiments were carried out with male Balb/c mice according to the regulation of the Ethics Committee for the Care and Use of Laboratory Animals at the Medical University Vienna (BMWF-2022-0.770.291), the guidelines from the Austrian Animal Science Association and the Federation of European Laboratory Animal Science Associations (FELASA). The animals were kept in a pathogen-free conditions, controlled environment with 12 h light–dark cycle with ad libitum access to food and water. Every procedure was done in a laminar airflow […]
Treatment. CT-26 cells ([…] in 50 μL serum-free medium) were injected subcutaneously (s.c.) into the right flank of ten– to eleven-week-old male Balb/c mice. Three days after cell injection, all compounds (dissolved in 10% DMSO in water) were administered […]
1b/2b. Regarding anticancer activity experiments, mice were treated on 5 consecutive days […]
over 2 weeks. […]

[2] = Reactivity with mixture of small biological nucleophiles by ESI-MS; assay type: physicochemical; conditions: for reaction with nucleophile mixture within 24 h: 50 μM; for Intact compound after 24 h, nucleophile mixture: equimolar Cys/Met/His/ATP/GTP, each 50 μM, ESI-MS
Experimental: Then, the compounds were analogously incubated with an equimolar mixture of cysteine, methionine, histidine, adenosine triphosphate and guanosine triphosphate to verify coordination preferences for amino acids over nucleotides. The reactivity of the four compounds was qualitatively similar, characterized by release of the NQ ligands and formation of mainly methionine and histidine-adducts with the metal(arene) (ESI, Fig. S13 ^†). No metalation of the nucleotides was observed. In contrast to other O,O-ligand systems, which are typically deactivated within minutes by ligand release under such conditions,[51,52] the N,O,O-tridentate organometallics studied here were characterized by increased stability. […] Again, the 3-Morph-NQ ligand was detected upon release from the metal centre, but hydrolysis dimers were not observed in the presence of bionucleophiles (ESI, Fig. S13 ^†). The reactivity of the compounds towards an equimolar concentration of the model protein ubiquitin was characterized by similar kinetic behaviours and reactivity (ESI, Fig. S14 ^†). […]
aliquot was used for stability testing of the respective test substance in aqueous solution. […]
2b were equimolarly added (50 µM) to a mixture of three amino acids and two nucleotides (Cys/Met/His/ATP/GTP; each 50 µM in aqueous solution) to test the interaction with small biological nucleophiles. All samples were mixed and incubated in a shaking incubator at 37 °C with speed set to 1000 rpm in the dark (Eppendorf ThermoMixer® C). After 1.5 h, 24 h and 72 h, 300 µL per sample were transferred to fresh reaction vessels, immediately frozen in liquid N2 and stored at –20 °C until measurement.
Samples were diluted to a concentration of 2.5 µM with an organic eluent (49.5% v/v acetonitrile, 49.5% v/v methanol,1% v/v H2O), except ubiquitin containing samples which were diluted to the same concentration with acidified H2O (0.1% v/v formic acid). The samples were then analysed by flow-injection using an amazon speed ETD ion trap (Bruker Daltonics) in the positive ion mode over 0.4 min using the following experimental parameters: HV capillary ±4.5 kV, end plate offset –500 V, dry temp 180 °C, nebulizer 3 bar, dry gas 5 L min-1, scan range m/z 200–1400, target mass m/z 900, flow rate 5 µL min-1. For ubiquitin containing samples, the scan range was adapted to m/z 300– 2200 with a target mass of m/z 1100. Data

SMILES | intact complex, UV-vis, 24 h [1] | intact complex, UV-vis, 96 h [1] | reduction in tumour volume on day 13 (CT26 colon carcinoma; 10 mg kg^−1 i.p. over two weeks, vs vehicle) | tumour inhibition, 1-week experiment (CT26 colon carcinoma; 10 mg kg^−1 i.p., five consecutive days) | tumour growth compared to vehicle-treated controls (CT26 colon carcinoma) | reaction with nucleophile mixture within 24 h [2] | Intact compound after 24 h, nucleophile mixture [2]
CCC1=C2[O][Ru][O]C2(n2cccn2)c2ccccc2C1=O.Cc1ccc(C(C)C)cc1 (stereo not shown) [Compound 1a, [(3-ethyl-4-oxo-(pyrazolyl)-dihydronaphthalene)(cymene)ruthenium(II)]] | 75% | 53% | 44% | statistically significant tumour inhibition | significantly inhibit tumour growth | reacted nearly quantitatively | 4%
Cc1ccc(C(C)C)cc1.O=C1C(CN2CCOCC2)=C2[O][Ru][O]C2(n2cccn2)c2ccccc21 (stereo not shown) [Compound 1b] | 76% | 64% | – | – | inactive | reacted nearly quantitatively | 7%
CCC1=C2[O][Os][O]C2(n2cccn2)c2ccccc2C1=O.Cc1ccc(C(C)C)cc1 (stereo not shown) [Compound 2a] | 85% | 61% | – | – | significantly inhibit tumour growth | – | 19%

From paper PMC12320299 (Chemical Science, 2025)
